The values below come from patent US8258158B2 (Hoffmann-La Roche Inc., priority 2009, dated 2012).

The target in this experiment is T1, human HSL (Homo sapiens, UniProt Q05469).
T1 construct: overlapping PCR to generate a full length human HSL ORF with a 3′-His6 tag; His6 (C); made in house; host or cells: High 5 insect cells (baculovirus, pFast-BAC)
T1 sequence (Q05469 1-1076): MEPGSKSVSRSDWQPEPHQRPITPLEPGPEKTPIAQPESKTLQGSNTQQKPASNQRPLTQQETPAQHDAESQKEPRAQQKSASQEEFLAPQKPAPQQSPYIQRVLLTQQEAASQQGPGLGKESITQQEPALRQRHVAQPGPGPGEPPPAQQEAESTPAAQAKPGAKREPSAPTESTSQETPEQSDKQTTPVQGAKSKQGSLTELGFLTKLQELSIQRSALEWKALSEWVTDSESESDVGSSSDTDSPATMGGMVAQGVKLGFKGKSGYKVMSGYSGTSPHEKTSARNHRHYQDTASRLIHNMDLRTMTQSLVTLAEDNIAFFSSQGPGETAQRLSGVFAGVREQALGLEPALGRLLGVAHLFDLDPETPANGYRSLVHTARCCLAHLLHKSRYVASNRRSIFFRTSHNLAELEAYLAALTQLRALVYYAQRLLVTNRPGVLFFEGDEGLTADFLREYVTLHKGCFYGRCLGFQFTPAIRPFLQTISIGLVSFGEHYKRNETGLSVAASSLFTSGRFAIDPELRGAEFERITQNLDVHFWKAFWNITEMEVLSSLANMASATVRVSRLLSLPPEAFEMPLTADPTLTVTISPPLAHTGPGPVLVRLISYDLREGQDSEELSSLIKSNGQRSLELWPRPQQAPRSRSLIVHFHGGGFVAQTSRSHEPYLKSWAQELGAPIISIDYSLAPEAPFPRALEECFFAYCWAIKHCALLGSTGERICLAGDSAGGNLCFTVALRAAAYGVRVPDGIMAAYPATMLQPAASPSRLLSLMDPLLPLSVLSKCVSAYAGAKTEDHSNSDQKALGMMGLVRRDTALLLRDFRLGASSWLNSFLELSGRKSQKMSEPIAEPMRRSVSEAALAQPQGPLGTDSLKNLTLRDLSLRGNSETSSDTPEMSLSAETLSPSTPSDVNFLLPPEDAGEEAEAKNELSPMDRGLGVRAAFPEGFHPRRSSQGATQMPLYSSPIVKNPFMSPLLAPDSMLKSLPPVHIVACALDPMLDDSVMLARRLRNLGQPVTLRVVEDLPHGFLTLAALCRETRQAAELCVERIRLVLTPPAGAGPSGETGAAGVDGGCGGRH
Description: Human hormone-sensitive lipase (HSL) enzyme inhibition assay (colorimetric, DMPT substrate). In kind it is biochemical. To be noted: human full length HSL-His6; 2,3-dimercapto-1-propanol tributyrate substrate; 37° C., 20 minutes; read-out: HSL hum IC50. The procedure:
Production of Human Full Length Hormone Sensitive Lipase-His^6:
1) Cloning: cDNA was prepared from commercial human brain polyA+ RNA and used as a template in overlapping PCR to generate a full length human HSL ORF with a 3′-His6 tag. This full length insert was cloned into the pFast-BAC vector and the DNA-sequence of several single clones was verified. DNA from a correct full length clone with the 3′His6 tag was used to transform the E. coli strain DH10BAC. Resulting bacmid DNA was used to generate a titered baculovirus stock for protein generation. The sequence of the encoded HSL conforms to Swissprot entry Q05469, with the additional C-terminal His6-tag.
2) Protein purification: Culture: 5.5 L, High 5 cells expressing human full length HSL-His^6, 48 hr., containing 25 μM E-64. Cell count: […], 90% viable. Cells were thawed. On ice, cells were suspended in Base Buffer containing 10% glycerol, 25 mM Tris-Cl, 300 mM NaCl, 10 mM imidazole, 10 mM 2-mercaptoethanol, 2 μg pepstatin/ml, 2 μg leupeptin/ml, 2 μg antipain/ml, pH 8.0 at 4° C. in a final volume of 475 ml with 3.75×10^7 cells/ml. […] was done at 3×30 sec., Lubrol PX was added to 0.2% final concentration followed by stirring for 15 min. at 4° C. and centrifugation at 25 k×g, 60 min., 4° C. Soluble proteins were mixed with 60 ml of pre-washed and equilibrated Ni-NTA Agarose (Qiagen 30210) followed by tumbling end-over-end, 45 min., 4° C., centrifugation 1000 rpm 5 min and letting resin settle 5 min. Supernatant was removed, the resin washed in the centrifuge vessel using 5 volumes of Base Buffer containing 0.2% Lubrol PX. Centrifugation was done again, then the supernatant discarded. The resin was poured onto a 0.8 μm membrane in a disposable filter unit (Nalge 450-0080), and washed with 5 volumes of Base Buffer containing 0.2% Lubrol PX. It was then washed with 30 volumes of Base Buffer containing 60 mM imidazole pH 7.5 at 4° C. The protein was eluated with 5 volumes of 25 mM Tris-Cl, 300 mM NaCl, 200 mM imidazole, 10 mM 2-mercaptoethanol, pH 7.5 at 4° C. by tumbling resin with buffer end-over-end, 30 min., 4° C. The resin was captured on a 0.2 μm membrane disposable filter unit (Millipore SCGP U02 RE) and the eluate collected in the reservoir. The eluate was concentrated using a 30 k MWCO centrifugal filter device (Sartorius Vivascience Vivacell 100, VC1022), to 20 ml. It was then dialyzed overnight at 4° C., two times against 2 L of 10% glycerol, 25 mM Tris-Cl, 300 mM NaCl, 0.2 mM EDTA, 0.2 mM DTT, pH 7.5 at 4° C. The protein was filtered using a 0.22 μm disposable filter unit (Millipore SCGP00525). The protein concentration was calculated from absorbance at 280 nm, using 280=0.67 cm-1 mg-1. Yield was 235 mg, total. The protein was stored at −80° C.
Human Hormone-Sensitive Lipase (HSL) Enzyme Inhibition Assay:
HSL enzyme activity was measured by a colorimetric assay using 2,3-dimercapto-1-propanol tributyrate (Aldrich, St. Louis, Mo.) as a substrate. Typically, 1.5 mM 2,3-dimercapto-1-propanol tributyrate (DMPT) in 100 mM MOPS, pH 7.2, 0.2 mg/ml fatty acid-free BSA was prepared by sonication at 4° C. to homogenous suspension. Test compounds (2 mM stock in DMSO) were diluted 3 fold in series in DMSO. Compound solutions were diluted 24 fold in 1.5 mM DMPT containing solution and 18 ul per well was added to 384-well microplates (Corning Costar). Twelve microliters per well of human HSL (15 ug/ml) was added and the reaction mixture was incubated at 37° C. for 20 minutes. Six microliters of 12 mM dithio-bis-(2-nitrobenzoic acid) (DTNB) in DMSO plus 1.2% SDS and 0.6% Triton X-100 were added and the mixture was incubated at room temperature for 15 minutes. Product production was monitored by reading absorbance at 405 nm on an Envision Reader (PerkinElmer Life and Analytical Sciences, Shelton, Conn.).

Molecules are shown by their SMILES.

The IC50 is the midpoint of a concentration-inhibition curve. As for `O=C(Nc1ccc(OC(F)(F)F)cc1)C1(CO)CCN(S(=O)(=O)c2ccccc2Cl)CC1` [Example 28, 1-(2-Chloro-benzenesulfonyl)-4-hydroxymethyl-piperidine-4-carboxylic acid (4-trifluoromethoxy-phenyl)-amide], the IC50 was determined as 660 nM. As for `O=C(Nc1ccc(OC(F)(F)F)cc1)[C@H]1CCN(S(=O)(=O)c2ccccc2Cl)[C@H](CO)C1` (racemic) [Example 36, (2S,4S)-1-(2-Chloro-benzenesulfonyl)-2-hydroxymethyl-piperidine-4-carboxylic acid (4-trifluoromethoxy-phenyl)-amide and (2R,4R)-1-(2-Chloro-benzenesulfonyl)-2-hydroxymethyl-piperidine-4-carboxylic acid (4-trifluoromethoxy-phenyl)-amide], the IC50 is 50 nM. As to `CC(C)c1ccc(NC(=O)C2CCN(S(=O)(=O)c3ccccc3)CC2)cn1` [Example 2, 1-Benzenesulfonyl-piperidine-4-carboxylic acid (6-isopropyl-pyridin-3-yl)-amide], the 50% inhibitory concentration (IC50) was 240 nM.

For the compound `Cc1ccc(S(=O)(=O)N2CCC(C(=O)Nc3ccc(OC(C)C(F)(F)F)nc3)CC2)cc1` (racemic) [Example 6, (rac)-1-(Toluene-4-sulfonyl)-piperidine-4-carboxylic acid [6-(2,2,2-trifluoro-1-methyl-ethoxy)-pyridin-3-yl]-amide], the half-inhibitory concentration (IC50) came out at 120 nM. Then `CC(Oc1ccc(NC(=O)C2(CO)CCN(S(=O)(=O)c3ccccc3)CC2)cc1)C(F)(F)F` (racemic) [Example 27, (rac)-1-Benzenesulfonyl-4-hydroxymethyl-piperidine-4-carboxylic acid [4-(2,2,2-trifluoro-1-methyl-ethoxy)-phenyl]-amide], with 950 nM. Then `Cc1ccc(S(=O)(=O)N2CCC(C(=O)Nc3ccc(OC(F)F)cc3)CC2)cc1` [Example 13, 1-(Toluene-4-sulfonyl)-piperidine-4-carboxylic acid (4-difluoromethoxy-phenyl)-amide], with 120 nM. As for `Cc1ccc(S(=O)(=O)N2CCC(CO)(C(=O)Nc3ccc(OC(F)(F)F)cc3)CC2)cc1` [Example 51], the half-maximal inhibitory concentration (IC50) was 330 nM. Then `Cc1ccc(S(=O)(=O)N2CCC(C(=O)Nc3ccc(CCO)cc3)CC2)cc1` [Example 22, 1-(Toluene-4-sulfonyl)-piperidine-4-carboxylic acid [4-(2-hydroxy-ethyl)-phenyl]-amide], with 700 nM; and `O=C(Nc1ccc(OC(F)(F)F)cc1)C1CCN(S(=O)(=O)c2ccccc2Cl)CC1` [Example 38, 1-(2-Chloro-benzenesulfonyl)-piperidine-4-carboxylic acid (4-trifluoromethoxy-phenyl)-amide], with 20 nM. Turning to `O=C(NCC1(c2ccc(Cl)cc2)CC1)C1CCN(S(=O)(=O)c2ccccc2Cl)CC1` [Example 61, 1-(2-Chloro-benzenesulfonyl)-piperidine-4-carboxylic acid [1-(4-chloro-phenyl)-cyclopropylmethyl]-amide], the half-inhibitory concentration (IC50) was determined as 640 nM. As to `Cc1ccc(S(=O)(=O)N2CCC(C(=O)Nc3ccc(OC(F)(F)F)cc3)CC2)cc1` [Example 1, 1-(Toluene-4-sulfonyl)-piperidine-4-carboxylic acid (4-trifluoromethoxy-phenyl)-amide], the IC50 came to 80 nM. For the compound `COc1ccc(S(=O)(=O)N2CCC(F)(C(=O)Nc3ccc(OC(F)(F)F)cc3)CC2)cc1` [Example 29, 4-Fluoro-1-(4-methoxy-benzenesulfonyl)-piperidine-4-carboxylic acid (4-trifluoromethoxy-phenyl)-amide], the IC50 came to 280 nM.

With `CN(C(=O)[C@H]1CCN(S(=O)(=O)c2ccccc2Cl)[C@H](CO)C1)c1ccc(OC(F)(F)F)cc1` (racemic) [Example 11, (2S,4S)-1-(2-Chloro-benzenesulfonyl)-2-hydroxymethyl-piperidine-4-carboxylic acid methyl-(4-trifluoromethoxy-phenyl)-amide and (2R,4R)-1-(2-Chloro-benzenesulfonyl)-2-hydroxymethyl-piperidine-4-carboxylic acid methyl-(4-trifluoromethoxy-phenyl)-amide], the half-inhibitory concentration (IC50) turned out to be 80 nM. Then `COc1ccc(S(=O)(=O)N2CCC(C(=O)Nc3ccc(OC(C)C)cc3)CC2)cc1` [Example 49, 1-(4-Methoxy-benzenesulfonyl)-piperidine-4-carboxylic acid (4-isopropoxy-phenyl)-amide], with 90 nM; and `CC(C)Oc1ccc(NC(=O)C2CCN(S(=O)(=O)c3ccccc3Cl)CC2)cc1` [Example 39, 1-(2-Chloro-benzenesulfonyl)-piperidine-4-carboxylic acid (4-isopropoxy-phenyl)-amide], with 40 nM; and `Cn1cc(S(=O)(=O)N2CCC(F)(C(=O)Nc3ccc(OC(F)(F)F)cc3)CC2)c(C(F)(F)F)n1` [Example 63, 4-Fluoro-1-(1-methyl-3-trifluoromethyl-1H-pyrazole-4-sulfonyl)-piperidine-4-carboxylic acid (4-trifluoromethoxy-phenyl)-amide], with 1090 nM. As to `Cc1ccc(S(=O)(=O)N2CCC(C(=O)Nc3ccc(OC(CO)C(F)(F)F)cc3)CC2)cc1` (racemic) [Example 45, (rac)-1-(Toluene-4-sulfonyl)-piperidine-4-carboxylic acid [4-(2,2,2-trifluoro-1-hydroxymethyl-ethoxy)-phenyl]-amide], the IC50 is 150 nM. Then `O=C(Nc1ccc(OC(F)(F)F)cc1)C1CCN(S(=O)(=O)N2CCOCC2)CC1` [Example 37, 1-(Morpholine-4-sulfonyl)-piperidine-4-carboxylic acid (4-trifluoromethoxy-phenyl)-amide], with 600 nM.
